The record followed here is EP4603105A1, “PHARMACEUTICAL COMPOSITION CONTAINING CYCLIC COMPOUND HAVING SELECTIVE KRAS INHIBITORY EFFECT AGAINST HRAS AND NRAS” (CHUGAI SEIYAKU KABUSHIKI KAISHA, priority 2022, dated 2024).

For one test, the target named is HRAS wild-type protein (Homo sapiens, UniProt P01112). In words: Binding to HRAS by surface plasmon resonance (SPR), KD and KD ratio to KRAS. The conditions noted are these: ratio of KD for HRAS wild-type protein to KD for KRAS. A digest of the protocol:
(§1)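 Captured GDP-RAS (~100–300 RU) was exposed to increasing compound concentrations, 75 s per step, in running buffer with 10 µM GDP, 10 mM MgCl2 and 4% DMSO at pH 7.4.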

For test [1], the system named is human lung cancer strain NCI-H441. The format is cell-based. A digest of the protocol: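 Step one: dispense the test compound in serial DMSO dilutions. Step three: add the reagent and measure […].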
Test [2] addresses GDP-bound NRAS wild-type protein (Homo sapiens, UniProt P01111). In words: Binding to NRAS by surface plasmon resonance (SPR), KD and KD ratio to KRAS. The conditions noted are these: ratio of KD for GDP-bound NRAS wild-type protein to KD for KRAS. A digest of the protocol:
as §1

Sequence of GDP-bound NRAS wild-type protein (P01111 whole entry): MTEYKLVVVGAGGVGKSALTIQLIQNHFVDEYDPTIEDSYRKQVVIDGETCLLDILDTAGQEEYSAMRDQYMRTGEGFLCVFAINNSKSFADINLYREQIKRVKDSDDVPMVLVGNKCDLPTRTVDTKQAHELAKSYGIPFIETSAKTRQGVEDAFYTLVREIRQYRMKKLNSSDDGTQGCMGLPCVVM
Sequence of HRAS wild-type protein (P01112 whole entry): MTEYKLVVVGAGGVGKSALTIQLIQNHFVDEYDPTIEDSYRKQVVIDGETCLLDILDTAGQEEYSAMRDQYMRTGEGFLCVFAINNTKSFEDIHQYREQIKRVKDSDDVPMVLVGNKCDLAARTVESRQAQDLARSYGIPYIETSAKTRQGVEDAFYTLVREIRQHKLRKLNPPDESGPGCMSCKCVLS

Take `CCO[C@@H]1C[C@H]2C(=O)NC3(CC(C)(C)C3)C(=O)N(C)[C@@H](C3CCCC3)C(=O)N(C)[C@H](C(=O)N3CCCCC3)CC(=O)N(C)[C@H]3CCC/C=C/c4ccc(cc4)C[C@@H](C(=O)N(C)CC(=O)N[C@@H](CCc4cc(F)c(C(F)(F)F)c(F)c4)C(=O)N2C1)N1CC/C=C\C[C@@H](C1=O)N(C)C(=O)CN(C)C(=O)[C@H]([C@@H](C)CC)NC3=O` [PP2573]: the “HRAS /KRAS” value on HRAS wild-type protein is “A (a compound having 10 or more and less than 20 is denoted as A)”. In test [1], this molecule returned an IC50 of 10.1 nM. In addition, the “NRAS /KRAS” value in test [2] is “A (a compound having 10 or more and less than 20 is denoted as A)”.
Take `CCO[C@@H]1C[C@H]2C(=O)NC3(CC(C)(C)C3)C(=O)N(C)[C@@H](C3CCCC3)C(=O)N(C)[C@H](C(=O)N3CCCC3)CC(=O)N(C)[C@H]3CCC/C=C/c4ccc(cc4)C[C@@H](C(=O)N(C)CC(=O)N[C@@H](CCc4cc(F)c(C(F)(F)F)c(F)c4)C(=O)N2C1)N1CC/C=C\C[C@@H](C1=O)N(C)C(=O)CN(C)C(=O)[C@H]([C@@H](C)CC)NC3=O` [PP2574]: the “HRAS /KRAS” value on HRAS wild-type protein was “A (a compound having 10 or more and less than 20 is denoted as A)”. In addition, inhibition in test [1] was half-maximal at 4.2 nM (IC50). Moreover, the “NRAS /KRAS” value in test [2] is “A (a compound having 10 or more and less than 20 is denoted as A)”.
In the case of `CCO[C@@H]1C[C@H]2C(=O)NC3(CC(C)(C)C3)C(=O)N(C)[C@@H](C(CC)CC)C(=O)N(C)[C@H](C(=O)N(C)C)CC(=O)N(C)[C@H]3CCC/C=C/c4ccc(cc4)C[C@@H](C(=O)N(C)CC(=O)N[C@@H](CCc4cc(F)c(C(F)(F)F)c(F)c4)C(=O)N2C1)N1CC/C=C\C[C@@H](C1=O)N(C)C(=O)CN(C)C(=O)[C@H]([C@@H](C)CC)NC3=O` [PP2575], the “HRAS /KRAS” value on HRAS wild-type protein is “A (a compound having 10 or more and less than 20 is denoted as A)”. In addition, the IC50 in test [1] was 4.1 nM. In addition, in test [2], the “NRAS /KRAS” value was “A (a compound having 10 or more and less than 20 is denoted as A)”.
For the molecule `CCO[C@@H]1C[C@H]2C(=O)NC3(CC(C)(C)C3)C(=O)N(C)[C@@H](C(CC)CC)C(=O)N(C)[C@H](C(=O)N3CCCC3)CC(=O)N(C)[C@H]3CCC/C=C/c4ccc(cc4)C[C@@H](C(=O)N(C)CC(=O)N[C@@H](CCc4cc(F)c(C(F)(F)F)c(F)c4)C(=O)N2C1)N1CC/C=C\C[C@@H](C1=O)N(C)C(=O)CN(C)C(=O)[C@H]([C@@H](C)CC)NC3=O` [PP2576], the “HRAS /KRAS” value on HRAS wild-type protein is “A (a compound having 10 or more and less than 20 is denoted as A)”. The molecule further showed an IC50 in test [1] of 5.7 nM. Moreover, the “NRAS /KRAS” value in test [2] is “A (a compound having 10 or more and less than 20 is denoted as A)”.
Turning to `CCO[C@@H]1C[C@H]2C(=O)NC3(CC(C)(C)C3)C(=O)N(C)[C@@H](C3CCCC3)C(=O)N(C)[C@H](C(=O)N(C)CC)CC(=O)N(C)[C@H]3CCC/C=C/c4ccc(cc4)C[C@@H](C(=O)N(C)CC(=O)N[C@@H](CCc4ccc(Cl)c(Cl)c4)C(=O)N2C1)N1CC/C=C\C[C@@H](C1=O)N(C)C(=O)CN(C)C(=O)[C@H]([C@@H](C)CC)NC3=O` [PP2577], at HRAS wild-type protein, the “HRAS /KRAS” value was “A (a compound having 10 or more and less than 20 is denoted as A)”. The IC50 in test [1] is 4.1 nM. Also, the “NRAS /KRAS” value in test [2] is “A (a compound having 10 or more and less than 20 is denoted as A)”.
In the case of `CCO[C@@H]1C[C@H]2C(=O)NC3(CC(C)(C)C3)C(=O)N(C)[C@@H](C3CCCC3)C(=O)N(C)[C@H](C(=O)N3CCCCC3)CC(=O)N(C)[C@H]3CCC/C=C/c4ccc(cc4)C[C@@H](C(=O)N(C)CC(=O)N[C@@H](CCc4ccc(Cl)c(Cl)c4)C(=O)N2C1)N1CC/C=C\C[C@@H](C1=O)N(C)C(=O)CN(C)C(=O)[C@H]([C@@H](C)CC)NC3=O` [PP2578], the “HRAS /KRAS” value at HRAS wild-type protein is “A (a compound having 10 or more and less than 20 is denoted as A)”. In test [1], this molecule returned an IC50 of 17.7 nM. Moreover, in test [2], the “NRAS /KRAS” value is “AA (a compound having 20 or more is denoted as AA)”.
Consider `CCO[C@@H]1C[C@H]2C(=O)NC3(CC(C)(C)C3)C(=O)N(C)[C@@H](C(CC)CC)C(=O)N(C)[C@H](C(=O)N(C)C)CC(=O)N(C)[C@H]3CCC/C=C/c4ccc(cc4)C[C@@H](C(=O)N(C)CC(=O)N[C@@H](CCc4ccc(Cl)c(Cl)c4)C(=O)N2C1)N1CC/C=C\C[C@@H](C1=O)N(C)C(=O)CN(C)C(=O)[C@H]([C@@H](C)CC)NC3=O` [PP2580], for which the “HRAS /KRAS” value at HRAS wild-type protein was “A (a compound having 10 or more and less than 20 is denoted as A)”. Moreover, inhibition in test [1] was half-maximal at 7.9 nM (IC50). In addition, the “NRAS /KRAS” value in test [2] is recorded as “AA (a compound having 20 or more is denoted as AA)”.
`CCO[C@@H]1C[C@H]2C(=O)NC3(CC(C)(C)C3)C(=O)N(C)[C@@H](C(CC)CC)C(=O)N(C)[C@H](C(=O)N3CCCC3)CC(=O)N(C)[C@H]3CCC/C=C/c4ccc(cc4)C[C@@H](C(=O)N(C)CC(=O)N[C@@H](CCc4ccc(Cl)c(Cl)c4)C(=O)N2C1)N1CC/C=C\C[C@@H](C1=O)N(C)C(=O)CN(C)C(=O)[C@H]([C@@H](C)CC)NC3=O` [PP2581]: the “HRAS /KRAS” value on HRAS wild-type protein is “A (a compound having 10 or more and less than 20 is denoted as A)”. The molecule further yielded an IC50 in test [1] of 32.1 nM. Further, the “NRAS /KRAS” value in test [2] is given as “AA (a compound having 20 or more is denoted as AA)”.
Turning to `CCO[C@@H]1C[C@H]2C(=O)NC3(CC(C)(C)C3)C(=O)N(C)[C@@H](C3CCCC3)C(=O)N(C)[C@H](C(=O)N3CCCC3)CC(=O)N(C)[C@H]3CCC/C=C/c4ccc(cc4)C[C@@H](C(=O)N(C)CC(=O)N[C@@H](CCc4cc(F)c(C(F)(F)F)c(F)c4)C(=O)N2C1)N1CC/C=C\C[C@@H](C1=O)N(C)C(=O)CN(C1CC1)C(=O)[C@H]([C@@H](C)CC)NC3=O` [PP2583], the “HRAS /KRAS” value at HRAS wild-type protein was “A (a compound having 10 or more and less than 20 is denoted as A)”. In addition, the IC50 in test [1] was found to be 4.1 nM. The “NRAS /KRAS” value in test [2] was “A (a compound having 10 or more and less than 20 is denoted as A)”.
As to `CCO[C@@H]1C[C@H]2C(=O)NC3(CC(C)(C)C3)C(=O)N(C)[C@@H](C3CCCC3)C(=O)N(C)[C@H](C(=O)N(C)CC)CC(=O)N(C)[C@H]3CCCC/C=C/c4ccc(cc4)C[C@@H](C(=O)N(C)CC(=O)N[C@@H](CCc4ccc(Cl)c(Cl)c4)C(=O)N2C1)N1CC/C=C\C[C@@H](C1=O)N(C)C(=O)CN(C)C(=O)[C@H]([C@@H](C)CC)NC3=O` [PP2592], at HRAS wild-type protein, the “HRAS /KRAS” value was “A (a compound having 10 or more and less than 20 is denoted as A)”. This molecule came in with an IC50 in test [1] of 7.9 nM. The “NRAS /KRAS” value in test [2] is “A (a compound having 10 or more and less than 20 is denoted as A)”.
`CCO[C@@H]1C[C@H]2C(=O)NC3(CC(C)(C)C3)C(=O)N(C)[C@@H](C3CCCC3)C(=O)N(C)[C@H](C(=O)N3CCCC3)CC(=O)N(C)[C@H]3CCCC/C=C/c4ccc(cc4)C[C@@H](C(=O)N(C)CC(=O)N[C@@H](CCc4ccc(Cl)c(Cl)c4)C(=O)N2C1)N1CC/C=C\C[C@@H](C1=O)N(C)C(=O)CN(C)C(=O)[C@H]([C@@H](C)CC)NC3=O` [PP2593]: at HRAS wild-type protein, the “HRAS /KRAS” value was “A (a compound having 10 or more and less than 20 is denoted as A)”. This molecule returned an IC50 in test [1] of 11.5 nM. Moreover, in test [2], the “NRAS /KRAS” value is “A (a compound having 10 or more and less than 20 is denoted as A)”.
In the case of `CCC(CC)[C@H]1C(=O)N(C)[C@H](C(=O)N(C)C)CC(=O)N(C)[C@H]2CCC/C=C/c3ccc(cc3)C[C@@H](C(=O)N(C)CC(=O)N[C@@H](CCc3cc(F)c(C(F)(F)F)c(F)c3)C(=O)N3C[C@H](OC(C)C)C[C@H]3C(=O)NC3(CC(C)(C)C3)C(=O)N1C)N1CC/C=C\C[C@@H](C1=O)N(C)C(=O)CN(C)C(=O)[C@H]([C@@H](C)CC)NC2=O` [PP2594], the “HRAS /KRAS” value on HRAS wild-type protein was “A (a compound having 10 or more and less than 20 is denoted as A)”. Also, in test [1], 6 nM corresponded to half-maximal inhibition (IC50). Further, the “NRAS /KRAS” value in test [2] was “A (a compound having 10 or more and less than 20 is denoted as A)”.
In the case of `CC[C@H](C)[C@@H]1NC(=O)[C@@H]2CCC/C=C/c3ccc(cc3)C[C@@H](C(=O)N(C)CC(=O)N[C@@H](CCc3ccc(Cl)c(Cl)c3)C(=O)N3C[C@H](OC(C)C)C[C@H]3C(=O)NC3(CC(C)(C)C3)C(=O)N(C)[C@@H](C3CCCC3)C(=O)N(C)[C@H](C(=O)N(C)CC)CC(=O)N2C)N2CC/C=C\C[C@@H](C2=O)N(C)C(=O)CN(C)C1=O` [PP2595], the “HRAS /KRAS” value at HRAS wild-type protein was “B (a compound having 3 or more and less than 10 is denoted as B)”. Moreover, half-maximal inhibition in test [1] (IC50) required 12.7 nM. The “NRAS /KRAS” value in test [2] was “A (a compound having 10 or more and less than 20 is denoted as A)”.
On to `CC[C@H](C)[C@@H]1NC(=O)[C@@H]2CCC/C=C/c3ccc(cc3)C[C@@H](C(=O)N(C)CC(=O)N[C@@H](CCc3ccc(Cl)c(Cl)c3)C(=O)N3C[C@H](OC(C)C)C[C@H]3C(=O)NC3(CC(C)(C)C3)C(=O)N(C)[C@@H](C3CCCC3)C(=O)N(C)[C@H](C(=O)N3CCCC3)CC(=O)N2C)N2CC/C=C\C[C@@H](C2=O)N(C)C(=O)CN(C)C1=O` [PP2596], for which the “HRAS /KRAS” value on HRAS wild-type protein is “A (a compound having 10 or more and less than 20 is denoted as A)”. The molecule also had an IC50 in test [1] of 13.7 nM. Further, in test [2], the “NRAS /KRAS” value is “A (a compound having 10 or more and less than 20 is denoted as A)”.
Regarding `CCO[C@@H]1C[C@H]2C(=O)NC3(CC(C)(C)C3)C(=O)N(C)[C@@H](C3CCCC3)C(=O)N(C)[C@H](C(=O)N3CCCCC3)CC(=O)N(C)[C@H]3CC/C=C/c4ccc(cc4)C[C@@H](C(=O)N(C)CC(=O)N[C@@H](CCc4ccc(Cl)c(Cl)c4)C(=O)N2C1)N1CC/C=C\C[C@@H](C1=O)N(C)C(=O)CN(C)C(=O)[C@H]([C@@H](C)CC)NC3=O` [PP2597], the “HRAS /KRAS” value at HRAS wild-type protein was “A (a compound having 10 or more and less than 20 is denoted as A)”. In addition, the IC50 in test [1] was 20.1 nM. The “NRAS /KRAS” value in test [2] is “A (a compound having 10 or more and less than 20 is denoted as A)”.
